In brackets after ≈: the same amount, converted by molar mass. Entries after “also recorded” stand apart in the source; their conditions may differ. Like-named read-outs stand apart in the source and are kept apart here. Each block holds one molecule with its values, some of them ahead of it.
What was measured:
[1] = Solubility study of crystalline forms in water (slurry, UV); assay type: physicochemical; settings: for Solubility: slurry stirred 24 hours at ambient temperature (23° C.), UV
Procedure: Analysis of the relative solubilities of crystalline tacedinaline Forms A, B, and D was performed as follows.
The starting material was Form B. The only peak in the spectrum, at approximately 267 nm, was used. The UV parameters were: scan range: 190-800 nm; 480 nm/min; 1 cm cuvette.
Each sample was placed in water to give a slurry. The slurries were stirred at ambient temperature for 24 hours. The temperature in the laboratory was monitored and found to be steady at 23° C. After 24 hours, the vials containing the slurries were centrifuged for about 5 minutes. The mother liquors were decanted and filtered through 0.2 micron filters, then diluted appropriately and analyzed by UV. Solids were dried under dry air purges and analyzed by XRPD.

[2] = Accelerated stability studies, 40° C. and 75% relative humidity, XRPD; assay type: physicochemical
Procedure: Accelerated stability studies were performed on samples of crystalline tacedinaline Forms A, B, C, and a mixture of Forms B and D, under conditions of 40° C. and 75% relative humidity. For the studies on Form A, samples were taken at 8 days, 15 days, one month, 10 weeks, and 8 months. For the studies on Forms B, C, and a mixture of Forms B and D, samples were taken at 2, 4, 6, 8, and 10 weeks.

[3] = Bioavailability / pharmacokinetics study, single IV and PO administration; assay type: in vivo, Sprague-Dawley rats; settings: for AUC(0-inf) / AUC(0-t) / Cmax / clearance / half-life / MRT inf / Vd / bioavailability / Tmax: Sprague-Dawley, rat, plasma; for AUC(0-inf) / AUC(0-t) / Cmax / clearance / half-life / MRT inf / Vd / bioavailability: 1 mg/kg; for MRT inf: read-out: MRT(0-∞); for Vd: read-out: Vz
Procedure: A study was performed to determine the pharmacokinetics parameters and bioavailability of Tacedinaline Form A in Sprague-Dawley Rats, following a single intravenous injection (IV) and oral administration (PO). Formulation: IV formulation: The test article was dissolved in 10% DMSO/45% PEG400/45% Saline to yield a final concentration of 0.5 mg/ml for intravenous injection. PO formulation: The test article was suspended in 0.5% methylcellulose in water to yield a final concentration of 0.2 mg/ml for oral administration. Collection Intervals: Three rats in each group were used for blood collection at each time point: Groups 1 and 2: Pre-dose and post-dose (5 min, 15 min, 30 min, 1 hour, 2 hours, 4 hours, 6 hours, 8 hours, and 24 hours). Analysis Procedure: The PK blood samples were centrifuged at approximately 8000 rpm for 6 minutes at 2-8° C. and the resulting plasma separated and stored frozen at approximately −80° C. (following separation, the plasma may be initially placed on ice prior to being stored in the −80° C. freezer). All the plasma samples were labeled with detailed information such as study number, animal number, matrix, time points of collection and date of collection. Pharmacokinetics Analysis: A standard set of parameters including Area Under the Curve (AUC(0-t) and AUC(0-∞)), elimination half-life (T1/2), maximum plasma concentration (Cmax), time to reach maximum plasma concentration (Tmax), clearance (CL), and volume of distribution (VZ) was calculated using noncompartmental analysis modules in FDA certified pharmacokinetic program WinNonlin Professional v6.1 (Pharsight, USA). Further, the bioavailability was estimated using the following formula: […]

[4] = Competitive slurry experiment / relative thermodynamic stability; assay type: physicochemical; settings: for relative thermodynamic stability, rank order: from Examples 10A, 11 and 12; for thermodynamic stability relative to other forms (in words): slurry experiments (THF overnight; acetone 7 days), Examples 10A, 11, 12
Procedure: To a mixture of 161.3 mg of crystalline tacedinaline Forms B and D, was added 2 mL of acetone. The resulting slurry was stirred at ambient temperature for 7 days and filtered to give white solid.
A slurry containing 25.8 mg tacedinaline Form A, 25.8 mg of a mixture of tacedinaline Forms B and D, a few milligrams of tacedinaline Form B, and 0.5 mL of tetrahydrofuran (THF) was stirred overnight and filtered to give 38.6 mg of a white solid. The white solid was analyzed by XRPD and determined to be tacedinaline Form A.

[5] = Thermal stability relative to Form C; assay type: physicochemical
Procedure: As used herein, the term “DSC” refers to differential scanning calorimetry. Unless otherwise noted, DSC data disclosed herein were obtained using a TA Instruments 2920 instrument. Samples were prepared in crimped aluminum pans and kept under a flow of nitrogen during analysis. The heating rate was 10° C./minute.
As used herein, the term “TGA” refers to thermogravimetric analysis. Unless otherwise noted, TGA data disclosed herein were obtained using TA Instruments 2050 instrument. Samples were kept under a flow of nitrogen during analysis. The heating rate was 10° C./minute.

Solubility [1]: 20.8 µg/mL | stability of the solid form (in words) ([2]; listed as mixture of Form B and Form D): more stable than Form C | XRPD Result ([2]; pull time 2 weeks): B + D | XRPD Result ([2]; pull time 4 weeks): B + D | XRPD Result ([2]; pull time 6 weeks): B + D | XRPD Result ([2]; pull time 8 weeks): B + D
Structure (SMILES): CC(=O)Nc1ccc(C(=O)Nc2ccccc2N)cc1 [B + D, 4-acetamido-N-(2-aminophenyl)benzamide]

Solubility [1]: 17.6 µg/mL (≈ 65.4 µM) | stability of the solid form (in words) [2]: stable, as no conversion was seen | CL_F ([3]; PO 1 mg/kg, Animal No. 1): 4.5 mL/min/kg | Vz_F ([3]; PO 1 mg/kg, Animal No. 1): 1.47 L/kg | CL_F ([3]; PO 1 mg/kg, Animal No. 2): 4.17 mL/min/kg | Vz_F ([3]; PO 1 mg/kg, Animal No. 2): 1.04 L/kg | CL_F ([3]; PO 1 mg/kg, Mean): 4.33 mL/min/kg | Vz_F ([3]; PO 1 mg/kg, Mean): 1.25 L/kg | AUC(0-inf) ([3]; iv, IV 1 mg/kg, Animal No. 1): 3100 ng·h/mL | AUC(0-t) ([3]; iv, IV 1 mg/kg, Animal No. 1): 3090 ng·h/mL | Cmax ([3]; iv, IV 1 mg/kg, Animal No. 1): 799 ng/mL | clearance ([3]; iv, IV 1 mg/kg, Animal No. 1): 5.33 mL/min/kg | half-life ([3]; iv, IV 1 mg/kg, Animal No. 1): 2.81 h | MRT inf ([3]; iv, IV 1 mg/kg, Animal No. 1): 3.46 h | Vd ([3]; iv, IV 1 mg/kg, Animal No. 1): 1.31 L/kg | AUC(0-inf) ([3]; iv, IV 1 mg/kg, Animal No. 2): 3010 ng·h/mL | AUC(0-t) ([3]; iv, IV 1 mg/kg, Animal No. 2): 3010 ng·h/mL | Cmax ([3]; iv, IV 1 mg/kg, Animal No. 2): 715 ng/mL | clearance ([3]; iv, IV 1 mg/kg, Animal No. 2): 5.5 mL/min/kg | half-life ([3]; iv, IV 1 mg/kg, Animal No. 2): 2.82 h | MRT inf ([3]; iv, IV 1 mg/kg, Animal No. 2): 3.57 h | Vd ([3]; iv, IV 1 mg/kg, Animal No. 2): 1.35 L/kg | AUC(0-inf) ([3]; iv, IV 1 mg/kg, Mean): 3060 ng·h/mL | AUC(0-t) ([3]; iv, IV 1 mg/kg, Mean): 3050 ng·h/mL | Cmax ([3]; iv, IV 1 mg/kg, Mean): 757 ng/mL | clearance ([3]; iv, IV 1 mg/kg, Mean): 5.5 mL/min/kg | half-life ([3]; iv, IV 1 mg/kg, Mean): 2.81 h | MRT inf ([3]; iv, IV 1 mg/kg, Mean): 3.52 h | Vd ([3]; iv, IV 1 mg/kg, Mean): 1.33 L/kg | bioavailability ([3]; oral, rats, read-out: bioavailability): 100% | AUC(0-inf) ([3]; po, PO 1 mg/kg, Animal No. 1): 3730 ng·h/mL | AUC(0-t) ([3]; po, PO 1 mg/kg, Animal No. 1): 3700 ng·h/mL | Cmax ([3]; po, PO 1 mg/kg, Animal No. 1): 687 ng/mL | half-life ([3]; po, PO 1 mg/kg, Animal No. 1): 3.81 h | bioavailability ([3]; po, PO 1 mg/kg, Animal No. 1, read-out: F (Bioavailability)): 122% | MRT inf ([3]; po, PO 1 mg/kg, Animal No. 1): 4.6 h | AUC(0-inf) ([3]; po, PO 1 mg/kg, Animal No. 2): 4030 ng·h/mL | AUC(0-t) ([3]; po, PO 1 mg/kg, Animal No. 2): 4020 ng·h/mL | Cmax ([3]; po, PO 1 mg/kg, Animal No. 2): 781 ng/mL | half-life ([3]; po, PO 1 mg/kg, Animal No. 2): 2.9 h | bioavailability ([3]; po, PO 1 mg/kg, Animal No. 2, read-out: F (Bioavailability)): 132% | MRT inf ([3]; po, PO 1 mg/kg, Animal No. 2): 4.06 h | AUC(0-inf) ([3]; po, PO 1 mg/kg, Mean): 3880 ng·h/mL | AUC(0-t) ([3]; po, PO 1 mg/kg, Mean): 3860 ng·h/mL | Cmax ([3]; po, PO 1 mg/kg, Mean): 734 ng/mL | half-life ([3]; po, PO 1 mg/kg, Mean): 3.35 h | bioavailability ([3]; po, PO 1 mg/kg, Mean, read-out: F (Bioavailability)): 127% | MRT inf ([3]; po, PO 1 mg/kg, Mean): 4.33 h | Tmax ([3]; IV 1 mg/kg, Animal No. 1): 0.5 h | Tmax ([3]; PO 1 mg/kg, Animal No. 1): 2 h | relative thermodynamic stability, rank order [4]: A>D>B
Structure (SMILES): CC(=O)Nc1ccc(C(=O)Nc2ccccc2N)cc1 [Form A, 4-(acetylamino)-N-(2-aminophenyl)benzamide]
thermodynamic stability relative to other forms (in words) [4]: more thermodynamically stable, relative to tacedinaline Forms B, and D; also recorded: more thermodynamically stable under certain conditions relative to Forms B and D | thermal stability relative to Form C (in words) [5]: improved thermal stability relative to tacedinaline Form C

solubility in water compared with other forms (in words) [1]: superior to that of Forms A and D | Solubility [1]: 42.6 µg/mL (≈ 158 µM) | stability of the solid form (in words) [2]: more stable than Form C | relative thermodynamic stability, rank order [4]: A>D>B
Structure (SMILES): CC(=O)Nc1ccc(C(=O)Nc2ccccc2N)cc1 [Form B, 4-(acetylamino)-N-(2-aminophenyl)benzamide]
thermal stability relative to Form C (in words) [5]: improved thermal stability relative to tacedinaline Form C

XRPD Result ([2]; pull time 2 weeks): D + A | XRPD Result ([2]; pull time 6 weeks): D + A | XRPD Result ([2]; pull time 8 weeks): D + A
Structure (SMILES): CC(=O)Nc1ccc(C(=O)Nc2ccccc2N)cc1 [Form C, 4-(acetylamino)-N-(2-aminophenyl)benzamide, reference compound]
stability of the solid form (in words) [2]: converted to either Form D, or a mixture of Form D with some amount of Form A present

relative thermodynamic stability, rank order [4]: A>D>B
Structure (SMILES): CC(=O)Nc1ccc(C(=O)Nc2ccccc2N)cc1 [Form D, 4-(acetylamino)-N-(2-aminophenyl)benzamide]
thermodynamic stability relative to other forms (in words) [4]: more thermodynamically stable under certain conditions relative to Form B | thermal stability relative to Form C (in words) [5]: improved thermal stability relative to tacedinaline Form C
